# Assay results taken from ChEMBL document CHEMBL1201862, “PubChem BioAssay data set” (2004).
# Activity calls are given as the source filed them.
# Columns and labels:
# [1] = NIH-3T3 fibroblast cytotoxicity, dose response, cytotoxicity control, cell-based, fluorescence, Alamar Blue, secondary assay (AID 2327); format: functional;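 further: NIH-3T3 mouse fibroblasts cultured with fluconazole at 8 µg/mL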
# [2] = target: Peroxisome proliferator-activated receptor gamma/Nuclear receptor coactivator 1 (Homo sapiens, UniProt P37231); experiment: (§1) TR-FRET dose response biochemical High Throughput Screening assay for agonists of the steroid receptor coactivator 1 (SRC-1) recruitment by the peroxisome proliferator-activated receptor gamma (PPAR gamma): non-selective agonists. [Related pubchem assays (depositor defined):AID1300, AID1808, AID504735, AID631]; format: protein assay
# [3] = target: Peroxisome proliferator-activated receptor gamma/Nuclear receptor coactivator 3 (Homo sapiens, UniProt P37231); experiment: as §1, with “3 (SRC-3)” for “1 (SRC-1)”, “assays: 1301 (Confirmation screen.), 1048 (Primary screen.)]” for “assays (depositor defined):AID1300, AID1808, AID504735, AID631]”; format: functional
# [4] = C. albicans growth with fluconazole, confirmation, fluorescence, retest (AID 2467); format: functional, cell-based
# [5] = target: T1, Serine/threonine-protein phosphatase (Candida dubliniensis (strain CD36 / CBS 7987 / NCPF 3949 / NRRLY-17841) (Yeast), UniProt B9W6M3); experiment: calcineurin pathway inhibitors in yeast reporter, dose response, S. cerevisiae, CDRE-lacZ, luminescence, secondary (AID 2388); format: functional, cell-based;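 further: yeast reporter cells carrying a calcineurin-responsive lacZ construct stimulated with calcium chloride; luminescent beta-galactosidase reporter signal in whole cells rather than isolated phosphatase activity; potency for inhibition where a drop in reporter signal means calcineurin blockade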
# T1 sequence (B9W6M3 whole entry): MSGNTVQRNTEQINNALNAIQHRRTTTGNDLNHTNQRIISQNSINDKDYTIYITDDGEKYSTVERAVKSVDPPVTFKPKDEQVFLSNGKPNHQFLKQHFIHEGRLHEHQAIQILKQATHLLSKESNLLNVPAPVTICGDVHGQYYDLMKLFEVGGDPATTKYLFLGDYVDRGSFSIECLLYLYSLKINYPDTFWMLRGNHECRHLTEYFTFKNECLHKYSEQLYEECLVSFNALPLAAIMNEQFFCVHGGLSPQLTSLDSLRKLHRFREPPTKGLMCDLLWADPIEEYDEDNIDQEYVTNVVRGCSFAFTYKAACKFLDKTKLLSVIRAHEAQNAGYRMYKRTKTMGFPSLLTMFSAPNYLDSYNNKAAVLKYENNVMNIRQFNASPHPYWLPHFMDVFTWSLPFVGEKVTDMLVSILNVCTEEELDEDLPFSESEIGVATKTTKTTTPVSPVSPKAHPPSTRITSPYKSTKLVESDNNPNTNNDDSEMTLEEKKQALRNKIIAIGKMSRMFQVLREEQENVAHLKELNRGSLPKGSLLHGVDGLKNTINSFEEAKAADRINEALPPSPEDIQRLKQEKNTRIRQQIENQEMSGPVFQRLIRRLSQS
# [6] = target: Peroxisome proliferator-activated receptor gamma/Nuclear receptor coactivator 2 (Homo sapiens, UniProt P37231); experiment: TR-FRET dose response biochemical High Throughput Screening assay for agonists of the steroid receptor coactivator 2 (SRC-2) recruitment by the peroxisome proliferator-activated receptor gamma (PPAR gamma): non-selective agonists. [Related pubchem assays: 1297, 1032 ]; format: functional
# Troponin, cardiac muscle = Troponin, cardiac muscle (Homo sapiens, UniProt P19429+P45379+P63316); experiment: Fluorescence-based biochemical high throughput dose response assay for activators of the calcium sensitivity of cardiac Regulated Thin Filaments (RTF). [Related pubchem assays (depositor defined):AID493008, AID493018, AID504382, AID504383]; format: protein-complex assay
# [7] = target: ATP-dependent molecular chaperone HSP82 (Candida albicans (strain WO-1) (Yeast), UniProt C4YTQ8); experiment: loss of DOC-induced GRE-beta-galactosidase reporter signal, dose response, Hsp90 inhibitor project, S. cerevisiae, luminescence (AID 2400); format: functional, cell-based;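 further: beta-galactosidase luminescence from glucocorticoid response element reporter as proxy for Hsp90 function; inhibitor potency where signal loss means Hsp90 inhibition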
# Escherichia coli = experiment: microbe, parasite or virus in culture
# [8] = target: T2, Microphthalmia-associated transcription factor (Homo sapiens, UniProt O75030); experiment: TRPM1 promoter luciferase signal decrease, dose response, MITF inhibitor project, cell-based, SK-MEL-5, cherry-picked, set 3 (AID 493073); format: functional
# T2 sequence (O75030 whole entry): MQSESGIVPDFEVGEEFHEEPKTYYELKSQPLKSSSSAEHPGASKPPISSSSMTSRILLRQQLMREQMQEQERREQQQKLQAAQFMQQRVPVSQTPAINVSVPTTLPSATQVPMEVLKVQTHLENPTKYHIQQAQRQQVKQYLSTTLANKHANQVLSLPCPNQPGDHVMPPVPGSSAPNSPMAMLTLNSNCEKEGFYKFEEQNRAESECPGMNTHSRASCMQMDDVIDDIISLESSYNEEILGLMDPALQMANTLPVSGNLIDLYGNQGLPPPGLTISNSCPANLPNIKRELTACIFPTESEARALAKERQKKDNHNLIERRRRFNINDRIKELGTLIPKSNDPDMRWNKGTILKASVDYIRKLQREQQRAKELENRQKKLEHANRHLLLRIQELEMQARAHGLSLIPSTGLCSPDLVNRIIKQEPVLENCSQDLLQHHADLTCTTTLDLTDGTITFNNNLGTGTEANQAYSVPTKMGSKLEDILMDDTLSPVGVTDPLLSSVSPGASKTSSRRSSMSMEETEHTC
# [9] = target: T3, Replicative DNA helicase DnaB (Mycobacterium tuberculosis, UniProt P9WMR3); experiment: DnaB intein splicing inhibitors, dose response, biochemical, cell-free fluorescence (AID 449749); format: functional
# T3 sequence (P9WMR3 whole entry): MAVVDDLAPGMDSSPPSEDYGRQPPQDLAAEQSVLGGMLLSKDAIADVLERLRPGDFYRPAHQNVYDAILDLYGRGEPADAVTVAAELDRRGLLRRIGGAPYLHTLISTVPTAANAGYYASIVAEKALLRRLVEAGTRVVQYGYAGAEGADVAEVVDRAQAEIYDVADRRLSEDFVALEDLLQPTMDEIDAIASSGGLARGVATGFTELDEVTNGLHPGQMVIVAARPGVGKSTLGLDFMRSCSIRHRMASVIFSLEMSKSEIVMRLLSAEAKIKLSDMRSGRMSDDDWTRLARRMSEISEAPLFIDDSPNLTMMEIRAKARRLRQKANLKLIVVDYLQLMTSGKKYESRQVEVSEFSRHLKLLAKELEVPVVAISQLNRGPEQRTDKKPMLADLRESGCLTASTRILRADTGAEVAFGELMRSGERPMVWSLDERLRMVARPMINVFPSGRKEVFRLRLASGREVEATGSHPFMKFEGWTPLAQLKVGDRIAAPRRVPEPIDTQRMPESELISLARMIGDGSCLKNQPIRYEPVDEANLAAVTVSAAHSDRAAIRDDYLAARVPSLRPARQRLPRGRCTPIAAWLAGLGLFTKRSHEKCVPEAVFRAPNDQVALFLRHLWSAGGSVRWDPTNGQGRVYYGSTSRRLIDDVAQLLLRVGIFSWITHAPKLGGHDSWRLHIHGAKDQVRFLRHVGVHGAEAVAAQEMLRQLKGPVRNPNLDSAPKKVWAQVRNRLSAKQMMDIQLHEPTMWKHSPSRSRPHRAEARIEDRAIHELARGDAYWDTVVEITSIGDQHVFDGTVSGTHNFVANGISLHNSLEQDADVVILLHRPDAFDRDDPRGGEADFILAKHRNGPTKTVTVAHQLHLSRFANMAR
# [10] = target: T4, Apoptotic protease-activating factor 1 (Homo sapiens, UniProt O14727); format: functional
# T4 sequence (O14727 whole entry): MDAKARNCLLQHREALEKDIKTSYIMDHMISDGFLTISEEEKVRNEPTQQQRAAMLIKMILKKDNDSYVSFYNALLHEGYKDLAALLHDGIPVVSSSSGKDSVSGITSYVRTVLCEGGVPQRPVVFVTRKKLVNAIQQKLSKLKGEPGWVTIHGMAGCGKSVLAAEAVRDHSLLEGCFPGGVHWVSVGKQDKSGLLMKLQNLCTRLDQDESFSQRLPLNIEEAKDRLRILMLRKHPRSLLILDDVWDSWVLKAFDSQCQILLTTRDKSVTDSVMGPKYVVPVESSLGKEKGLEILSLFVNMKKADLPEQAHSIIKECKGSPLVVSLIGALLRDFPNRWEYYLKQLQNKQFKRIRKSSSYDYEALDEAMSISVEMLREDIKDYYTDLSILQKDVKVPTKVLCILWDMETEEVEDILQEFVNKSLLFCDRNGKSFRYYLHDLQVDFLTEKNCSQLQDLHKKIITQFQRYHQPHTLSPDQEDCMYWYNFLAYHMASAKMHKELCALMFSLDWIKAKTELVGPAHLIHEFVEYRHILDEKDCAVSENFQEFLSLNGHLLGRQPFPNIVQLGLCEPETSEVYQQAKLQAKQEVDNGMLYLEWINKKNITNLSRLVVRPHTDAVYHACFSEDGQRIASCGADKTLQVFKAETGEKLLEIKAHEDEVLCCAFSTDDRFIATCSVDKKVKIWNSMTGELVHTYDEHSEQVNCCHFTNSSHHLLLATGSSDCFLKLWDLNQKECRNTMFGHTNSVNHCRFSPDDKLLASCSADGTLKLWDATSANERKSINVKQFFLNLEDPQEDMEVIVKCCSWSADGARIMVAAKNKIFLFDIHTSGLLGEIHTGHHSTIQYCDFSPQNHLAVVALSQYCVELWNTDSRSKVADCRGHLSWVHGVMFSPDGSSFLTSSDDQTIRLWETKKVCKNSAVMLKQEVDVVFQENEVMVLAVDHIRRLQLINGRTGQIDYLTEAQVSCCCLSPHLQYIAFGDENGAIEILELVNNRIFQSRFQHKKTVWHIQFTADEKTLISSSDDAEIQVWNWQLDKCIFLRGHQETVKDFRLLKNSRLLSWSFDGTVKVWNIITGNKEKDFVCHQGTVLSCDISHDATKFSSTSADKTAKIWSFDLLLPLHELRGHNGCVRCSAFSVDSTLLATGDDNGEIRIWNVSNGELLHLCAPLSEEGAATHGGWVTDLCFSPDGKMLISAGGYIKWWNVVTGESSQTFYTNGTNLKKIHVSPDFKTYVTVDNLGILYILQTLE
# Protein RecA = target: T5, Protein RecA (Mycobacterium tuberculosis, UniProt P9WHJ3); experiment: Fluorescence Cell-Free Homogeneous Dose Retest to Identify Inhibitors of RecA-Intein Splicing Activity. [Related pubchem assays (depositor defined):AID2097, AID2223, AID489010, AID492950]; format: functional
# T5 sequence (P9WHJ3 whole entry): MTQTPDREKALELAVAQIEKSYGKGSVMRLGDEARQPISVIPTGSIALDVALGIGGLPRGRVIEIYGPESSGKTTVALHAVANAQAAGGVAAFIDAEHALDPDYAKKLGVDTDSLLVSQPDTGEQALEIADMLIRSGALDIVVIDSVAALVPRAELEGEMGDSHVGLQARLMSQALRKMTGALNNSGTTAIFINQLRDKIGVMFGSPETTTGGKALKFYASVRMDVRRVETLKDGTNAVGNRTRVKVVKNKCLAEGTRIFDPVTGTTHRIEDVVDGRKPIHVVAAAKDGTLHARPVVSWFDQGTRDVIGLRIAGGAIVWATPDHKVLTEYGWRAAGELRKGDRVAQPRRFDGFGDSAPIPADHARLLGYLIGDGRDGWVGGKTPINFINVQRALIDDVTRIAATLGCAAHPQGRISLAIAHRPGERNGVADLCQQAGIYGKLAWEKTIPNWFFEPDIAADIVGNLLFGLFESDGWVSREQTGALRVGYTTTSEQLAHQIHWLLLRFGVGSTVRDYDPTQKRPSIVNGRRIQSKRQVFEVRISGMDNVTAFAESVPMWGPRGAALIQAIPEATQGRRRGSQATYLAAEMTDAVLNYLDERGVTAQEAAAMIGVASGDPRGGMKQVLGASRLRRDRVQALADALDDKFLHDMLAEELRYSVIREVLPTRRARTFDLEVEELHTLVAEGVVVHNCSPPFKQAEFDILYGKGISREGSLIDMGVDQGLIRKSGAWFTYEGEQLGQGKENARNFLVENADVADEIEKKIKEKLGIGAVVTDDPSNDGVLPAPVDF
# A-375 = experiment: MITF: Counter assay: A375 proliferation Measured in Cell-Based System Using Plate Reader - 2084-03_Inhibitor_Dose_DryPowder_Activity. [Related pubchem assays (depositor defined):AID488944]; format: functional; conditions: Homo sapiens
structure (smiles),measurement,setting,value
Cc1c(O)c2c3c(cccc3c1O)C(=O)N(c1ccccc1)C2=O,EC50,[1],> 150 µM (inactive)
same,EC50,[2],> 79.4 µM (inactive)
same,EC50,[3],> 79.4 µM (not active)
same,EC50,[4],492 nM (active)
same,EC50,[5],> 180 µM (inactive)
same,EC50,[6],> 79.4 µM (not active)
same,EC50,"Troponin, cardiac muscle",2.9 µM (active)
same,EC50,[7],82.8 µM (active)
CC1CN(S(=O)(=O)c2ccc(C(=O)Nc3ccccc3F)cc2)CC(C)O1 (stereo not given),AC50,Escherichia coli,25.1 µM (active)
CC1(C)CC(=O)C/C(=N\NC(=O)CCc2ccc(S(=O)(=O)N3CCOCC3)cc2)C1,AC50,Escherichia coli,44.6 µM (active)
CC1=C(CC(=O)c2ccccc2)C(=O)c2ccccc2C1=O,AC50,[8],7.15 µM (active)
same,AC50,[9],18.7 µM (active)
same,IC50,[10],28.8 µM (active)
same,EC50,Protein RecA,3.45 µM (active)
same,AC50,A-375,42.7 µM (active)
